One experiment concerns the target T1, Zcchc11 enzyme (Homo sapiens, UniProt Q5TAX3).
T1 construct: made in house; host or cells: HEK293 cells (Zcchc11); E. coli Rosetta II (LIN28A)
T1 sequence (Q5TAX3 212-1420): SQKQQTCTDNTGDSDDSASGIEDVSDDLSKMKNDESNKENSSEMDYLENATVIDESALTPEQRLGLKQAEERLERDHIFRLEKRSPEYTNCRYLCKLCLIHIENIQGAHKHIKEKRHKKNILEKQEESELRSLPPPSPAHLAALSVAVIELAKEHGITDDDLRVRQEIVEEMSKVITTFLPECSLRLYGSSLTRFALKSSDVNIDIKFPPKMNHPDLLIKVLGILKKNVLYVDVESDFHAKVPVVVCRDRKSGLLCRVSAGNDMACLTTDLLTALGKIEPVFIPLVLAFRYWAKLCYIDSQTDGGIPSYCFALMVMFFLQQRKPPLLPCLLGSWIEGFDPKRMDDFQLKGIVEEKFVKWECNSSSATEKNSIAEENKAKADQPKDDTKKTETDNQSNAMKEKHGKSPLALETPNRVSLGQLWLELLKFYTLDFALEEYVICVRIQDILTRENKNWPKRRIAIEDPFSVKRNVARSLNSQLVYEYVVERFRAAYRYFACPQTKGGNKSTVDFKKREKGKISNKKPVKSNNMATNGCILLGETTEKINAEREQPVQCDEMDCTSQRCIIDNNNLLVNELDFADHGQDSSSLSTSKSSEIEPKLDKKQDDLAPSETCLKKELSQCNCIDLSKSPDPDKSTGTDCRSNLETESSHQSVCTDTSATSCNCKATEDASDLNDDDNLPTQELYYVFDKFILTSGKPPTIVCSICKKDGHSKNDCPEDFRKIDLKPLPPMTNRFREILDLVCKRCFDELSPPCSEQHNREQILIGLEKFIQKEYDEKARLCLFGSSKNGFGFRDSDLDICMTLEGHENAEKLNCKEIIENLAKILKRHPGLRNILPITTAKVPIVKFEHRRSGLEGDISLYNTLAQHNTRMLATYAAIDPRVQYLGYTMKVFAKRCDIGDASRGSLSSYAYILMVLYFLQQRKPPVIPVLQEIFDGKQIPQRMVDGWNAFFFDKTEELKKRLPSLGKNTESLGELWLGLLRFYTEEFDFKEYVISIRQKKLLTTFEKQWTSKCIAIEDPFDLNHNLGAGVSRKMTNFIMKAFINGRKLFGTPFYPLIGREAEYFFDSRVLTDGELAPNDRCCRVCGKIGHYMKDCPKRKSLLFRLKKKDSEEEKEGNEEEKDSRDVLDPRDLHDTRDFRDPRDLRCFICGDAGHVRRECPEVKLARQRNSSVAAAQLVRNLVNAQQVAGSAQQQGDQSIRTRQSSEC
As to the kind of experiment: TUTase assay (Zcchc11 assay, Lin28a-dependent polyuridylation of pre-let-7). Type of experiment: biochemical. Conditions: LIN28A 10 nM, Zcchc11 0.2 nM, 5′-fluorescein pre-let-7 miRNA 2 nM, UTP 5 uM, room temperature, 30 minutes pre-incubation; read-out: Potency Lin28a-dep Z11 IC50. The gist of the method:
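Readout: time-dependent quench of 5′-fluorescein pre-let-7 (2 nM) as 3′-rhodamine A20 probe anneals to poly(U) tails. Enzyme 0.2 nM Zcchc11 (res. 212-1420), LIN28A 10 nM, UTP 5 uM; pH 7.3 HEPES, 150 mM KCl, 5 mM MgCl2, RT. 4-parameter IC50; 100% = DMSO, 0% = no UTP.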
With `O=C(O)c1cn(-c2ccccc2)c2cc(N3CCC[C@@H]3COc3ccccc3)c(F)cc2c1=O` [Example 4, (R)-6-fluoro-4-oxo-7-(2-(phenoxymethyl)pyrrolidin-1-yl)-1-phenyl-1,4-dihydroquinoline-3-carboxylic acid], the IC50 is above 50 µM.
As to `CN(C)C1CN(c2ccc(-n3cc(C(=O)O)c(=O)c4cc(Cl)c(N5CC6(CCC6)CC5COc5ncccc5Cl)cc43)cn2)C1` (stereo not shown) [Example 57, 6-Chloro-7-(7-(((3-chloropyridin-2-yl)oxy)methyl)-6-azaspiro[3.4]octan-6-yl)-1-(6-(3-(dimethylamino)azetidin-1-yl)pyridin-3-yl)-4-oxo-1,4-dihydroquinoline-3-carboxylic acid], the IC50 is at most 1 µM.
Take `COc1ccc(Cl)c(OC[C@H]2C[C@H]3C[C@H]3N2c2cc3c(cc2F)c(=O)c(C(=O)O)cn3-c2ccc(N3CC(N(C)C)C3)nc2)n1` [Example 68, 7-((1R,3R,5R)-3-(((3-chloro-6-methoxypyridin-2-yl)oxy)methyl)-2-azabicyclo[3.1.0]hexan-2-yl)-1-(6-(3-(dimethylamino)azetidin-1-yl)pyridin-3-yl)-6-fluoro-4-oxo-1,4-dihydroquinoline-3-carboxylic acid]: the IC50 was at most 1 µM.
In the case of `COc1ccc(Cl)c(OC[C@H]2CC(c3cn[nH]c3)CN2c2cc3c(cc2F)c(=O)c(C(=O)O)cn3-c2ccc(N3CC(N(C)C)C3)nc2)n1` (stereo partly drawn) [Example 71, 7-[(2R)-2-[[(3-chloro-6-methoxypyridin-2-yl)oxy]methyl]-4-(1H-pyrazol-4-yl)pyrrolidin-1-yl]-1-[6-[3-(dimethylamino)azetidin-1-yl]pyridin-3-yl]-6-fluoro-4-oxoquinoline-3-carboxylic acid], the 50% inhibitory concentration (IC50) is at most 1 µM.
In the case of `CC1(n2cc(C(=O)O)c(=O)c3cc(Cl)c(N4C(=O)CC[C@@H]4COc4ccccn4)cc32)CC1` [Example 24, (R)-6-chloro-1-(1-methylcyclopropyl)-4-oxo-7-(2-oxo-5-((pyridin-2-yloxy)methyl)pyrrolidin-1-yl)-1,4-dihydroquinoline-3-carboxylic acid], the IC50 is above 50 µM.

Still in this experiment, the particulars now being: Lin28a-dependent Zcchc11 (Z11) TUTase activity; read-out: Potency Lin28a-dep Z11 IC50.
As for `COc1ccc(Cl)c(OC[C@H]2C[C@H](c3cccnc3)CN2c2cc3c(cc2Cl)c(=O)c(C(=O)O)cn3-c2ccc(N3CC(N(C)C)C3)nc2)n1` [Compound 348, 6-chloro-7-((2R,4R)-2-(((3-chloro-6-methoxy-pyridin-2-yl)oxy)methyl)-4-(pyridin-3-yl)pyrrolidin-1-yl)-1-(6-(3-(dimethyl-amino)azetidin-1-yl)pyridin-3-yl)-4-oxo-1,4-dihydro-quinoline-3-carboxylic acid], the IC50 was at most 1 µM.
`Nc1ccc(-n2cc(C(=O)O)c(=O)c3cc(Cl)c(N4CCC[C@@H]4COc4ncccc4Cl)nc32)cn1` (racemic) [Compound 190, rac-(R)-1-(6-aminopyridin-3-yl)-6-chloro-7-(2-(((3-chloropyridin-2-yl)oxy)methyl)pyrrolidin-1-yl)-4-oxo-1,4-dihydro-1,8-naphthyridine-3-carboxylic acid]: the IC50 was at most 1 µM.
With `CN(C)C(=O)NC[C@H]1CCCN1c1cc2c(cc1Cl)c(=O)c(C(=O)O)cn2-c1ccc(N2CC(N(C)C)C2)nc1` [Compound 292, (R)-6-chloro-1-(6-(3-(dimethyl-amino)azetidin-1-yl)pyridin-3-yl)-7-(2-((3,3-dimethyl-ureido)methyl)pyrrolidin-1-yl)-4-oxo-1,4-dihydro-quinoline-3-carboxylic acid], the IC50 was at most 1 µM.
As for `CN(C)C1CN(c2ccc(-n3cc(C(=O)O)c(=O)c4cc(Cl)c(N5CCC[C@@]5(C)COc5ncccc5Cl)cc43)cn2)C1` (racemic) [Compound 314, rac-(R)-6-chloro-7-(2-(((3-chloropyridin-2-yl)oxy)methyl)-2-methyl-pyrrolidin-1-yl)-1-(6-(3-(dimethyl-amino)azetidin-1-yl)pyridin-3-yl)-4-oxo-1,4-dihydro-quinoline-3-carboxylic acid formic acid], the IC50 is at most 1 µM.
On to `COc1ccc(F)c(OC[C@H]2C[C@H]3C[C@H]3N2c2cc3c(cc2F)c(=O)c(C(=O)O)cn3-c2ccc(N(C)C)nc2)n1` [Compound 268, 1-(6-(dimethyl-amino)pyridin-3-yl)-6-fluoro-7-((1R,3R,5R)-3-(((3-fluoro-6-methoxy-pyridin-2-yl)oxy)methyl)-2-azabicyclo [3.1.0]hexan-2-yl)-4-oxo-1,4-dihydro-quinoline-3-carboxylic acid], for which the 50% inhibitory concentration (IC50) is at most 1 µM.
As for `O=C(O)c1cn(-c2ccc(O)cc2)c2cc(N3CCC[C@@H]3COc3nccc4[nH]cnc34)c(F)cc2c1=O` [Compound 116, (R)-7-(2-(((1H-imidazo[4,5-c]pyridin-4-yl)oxy)methyl)pyrrolidin-1-yl)-6-fluoro-1-(4-hydroxy-phenyl)-4-oxo-1,4-dihydro-quinoline-3-carboxylic acid], the IC50 was 1 to 10 µM.

Still in this experiment, the particulars now being: Lin28a-dependent Zcchc11 (Z11) TUTase assay; read-out: Potency Lin28a-dep Z11 IC50.
For the molecule `Cc1cccc(-n2cc(C(=O)O)c(=O)c3cc(F)c(N4CCC[C@@H]4COc4ccccn4)cc32)c1` [Example 391, (R)-6-fluoro-4-oxo-7-(2-((pyridin-2-yloxy)methyl)pyrrolidin-1-yl)-1-(m-tolyl)-1,4-dihydroquinoline-3-carboxylic acid], the 50% inhibitory concentration (IC50) was at most 1 µM.
As for `CN(C)C1CN(c2ccc(-n3cc(C(=O)O)c(=O)c4cc(C#N)c(N5C[C@@H](F)C[C@@H]5COc5ncccc5Cl)cc43)cn2)C1` [Example 572, 7-((2R,4S)-2-(((3-chloropyridin-2-yl)oxy)methyl)-4-fluoropyrrolidin-1-yl)-6-cyano-1-(6-(3-(dimethylamino)azetidin-1-yl)pyridin-3-yl)-4-oxo-1,4-dihydroquinoline-3-carboxylic acid], the half-maximal inhibitory concentration (IC50) was at most 1 µM.
As for `CN(C)C1CN(c2ccc(-n3cc(C(=O)O)c(=O)c4cc(C5CC5)c(N5CCC[C@@H]5COc5ncccc5Cl)cc43)cn2)C1` [Example 559, (R)-7-(2-(((3-chloropyridin-2-yl)oxy)methyl)pyrrolidin-1-yl)-6-cyclopropyl-1-(6-(3-(dimethylamino)azetidin-1-yl)pyridin-3-yl)-4-oxo-1,4-dihydroquinoline-3-carboxylic acid], the half-inhibitory concentration (IC50) is at most 1 µM.
With `Cc1cc2c(=O)c(C(=O)O)cn(-c3cnccn3)c2cc1N1CCC[C@@H]1COc1ncccc1Cl` [Example 487, (R)-7-(2-(((3-chloropyridin-2-yl)oxy)methyl)pyrrolidin-1-yl)-6-methyl-4-oxo-1-(pyrazin-2-yl)-1,4-dihydroquinoline-3-carboxylic acid], the IC50 is at most 1 µM.
Consider `O=C(O)c1cn(-c2ncc[nH]2)c2cc(N3CCC[C@@H]3COc3ncccc3Cl)c(Cl)cc2c1=O` [Example 560, (R)-6-chloro-7-(2-(((3-chloropyridin-2-yl)oxy)methyl)pyrrolidin-1-yl)-1-(1H-imidazol-2-yl)-4-oxo-1,4-dihydroquinoline-3-carboxylic acid], for which the concentration for half-maximal inhibition (IC50) is at most 1 µM.
On to `CC1CC1n1cc(C(=O)O)c(=O)c2cc(F)c(N3CCC[C@@H]3COc3ccccn3)cc21` (stereo partly drawn) [Example 446, 6-fluoro-1-(2-methylcyclo-propyl)-4-oxo-7-((R)-2-((pyridin-2-yloxy)methyl)pyrrolidin-1-yl)-1,4-dihydro-quinoline-3-carboxylic acid], for which the half-inhibitory concentration (IC50) lay within 1 to 10 µM.
`C#Cc1cc2c(=O)c(C(=O)O)cn(-c3ccc(N4CC(N(C)C)C4)nc3)c2cc1N1CCC[C@@H]1COc1ncccc1Cl` [Example 592, (R)-7-(2-(((3-chloropyridin-2-yl)oxy)methyl)pyrrolidin-1-yl)-1-(6-(3-(dimethylamino)azetidin-1-yl)pyridin-3-yl)-6-ethynyl-4-oxo-1,4-dihydroquinoline-3-carboxylic acid]: the IC50 is at most 1 µM.
On to `O=C(O)c1cn(-c2cc(F)ccc2Cl)c2cc(N3CCC[C@@H]3COc3ccccn3)c(F)cc2c1=O` [Example 386, (R)-1-(2-chloro-5-fluorophenyl)-6-fluoro-4-oxo-7-(2-((pyridin-2-yloxy)methyl)pyrrolidin-1-yl)-1,4-dihydroquinoline-3-carboxylic acid], for which the half-maximal inhibitory concentration (IC50) lay in the range of 1 to 10 µM.

What is called IC50 is the concentration that inhibits the measured activity by half.

Values taken from patent US12662491B2 (Redona Therapeutics, Inc., priority 2020, dated 2026).
